Reference: US11458189B2, “Cytoprotective drugs” (BALMES TRANSPLANTATION, priority 2017, dated 2022)
Starred links: 1 amine or outer side, 2 acyl side, 3 side chain; linkers in the order of their positions; H or OH if unused. Positions of bridges follow the written chain, without caps; N, C: chain ends. Non-standard residues stand in square brackets, D forms with d. Residues, ends and D or L forms follow the SMILES beside them. *: point of attachment. hTyr(3S-OH,4S-OH,3'-OSO3H) = N[C@H](C(=O)O)[C@H](O)[C@@H](O)c1ccc(O)c(OS(=O)(=O)O)c1; Orn(4R-OH,5R-OH) = O=C([C@H](C[C@@H](O)[C@@H](O)N[*:3])N[*:1])[*:2]; Pro(3S-OH,4S-Me) = C[C@H]1CN[C@H](C(=O)O)[C@H]1O; X1 = CCCCCOc1ccc(-c2cc(-c3ccc(C(=O)*)cc3)no2)cc1; Gln(3R-OH) = NC(=O)C[C@@H](O)[C@H](N)C(=O)O; Hyp = O=C(O)[C@@H]1C[C@@H](O)CN1

Test system: Human Hepatic Sinusoidal Endothelial Cells (HHSEC)
Test: Oxygen and glucose deprivation followed by replenishment, cell survival (calcein AM), HHSEC
Format: cell-based
Method: Anidulafungin and micafungin were tested on Human Renal Glomerular Endothelial Cells (HRGEC, Innoprot P10665), on Human Renal Proximal Tubular Epithelial Cells (HRPTEpiC, Innoprot P10662), on Human Astrocytes (HA, caltag SC-1800), on Human Cardiac Microvascular Endothelial Cells (HCMEC, Caltag SC-6000), on Human Hepatic Sinusoidal Endothelial Cells (HHSEC, Caltag SC-5000), on Rat Primary Kidney Glomerular Endothelial cells (Cellbiologics, RN-6014G) and on Bovine Brain Microvascular Endothelial Cells (BBMEC, Caltag SC-B100).
In a first phase, these isolated, purified and cryopreserved cells are thawed and multiplied according to the supplier's recommendations in T75 or T175 flasks pre-coated with 2 μg of fibronectin/[…] (CORNING) for HRGEC, HCMEC, HHSEC and BBMEC, or 2 μg poly-L-lysin/cm^2 (Caltag SC-0403) for HRPTEpiC and HA, or 15 mL/flask 175 cm^2 gelatin-based solution (Cellbiologics) in the presence of endothelial cell supplemented growth medium ECM (P60104, INNOPROT, Caltag, SC-1001) for HRGEC, HCMEC, HHSEC, RPKGEC or BBMEC, or astrocyte cell supplemented growth medium AM (Caltag SC-1801) for HA or epithelial cell supplemented growth medium EpiCM (P60106, INNOPROT) for HRPTEpiC, at 37° C. under 5% CO2 and saturated humidity until their confluency. They are then harvested by trypsinization according to the method described by the supplier for exactly 5 minutes and then reseeded in new flasks a maximum of three times.
To carry out the oxygen and glucose deprivation test followed by their replenishment, the cells will be seeded in 96-well black plates with transparent flat bottom (GREINER). Once a sufficient number of cells has been obtained to allow seeding of 2000 to 15000 cells per well of 96-well plates depending on the cell type, the cells are seeded in these 96-well plates previously coated with an extracellular matrix as listed above for the flasks. The cells are cultured for 5 to 8 days according to the cell type, in the presence of the same growth medium as in the flask as described above except for HRGEC and HRPTEpiC for which DMEM (DUTSCHER) with 1 g/L of supplemented glucose is used, at 37° C. under 5% CO2 and saturated humidity to obtain confluency.
On the first day of oxygen and glucose deprivation, (5th, 6th, 7th or 8th day of culture), the culture conditions are drastically changed. The medium of all plates is removed and replaced by DMEM (DUTSCHER) medium without glucose and supplemented only with 1% penicillin-streptomycin (DUTSCHER). Anidulafungin or micafungin dissolved in dimethyl sulfoxide (DMSO) is then added to each well at the desired concentration, resulting in a maximum of 1% DMSO, and the plates are placed under hypoxia at <1% 02 and 5% CO2 at 37° C. for 24 hours of culture. Each compound was tested in a concentration range.
After 24 hours, the growth medium is changed and replaced by a richer medium, DMEM (DUTSCHER) at 1 g/L glucose and 2% FBS (INNOPROT) and 1% penicillin-streptomycin (DUTSCHER). These media will have been pre-equilibrated at 37° C. in advance. The cells are then returned to culture at 37° C. under 20% 02 and 5% CO2 for 22h.
After 22 hours of reoxygenation, the potential protective effect of anidulafungin or micafungin is measured by a cell viability test using calcein AM (CORNING), which is a dye substrate. The calcein AM can easily cross the cell membrane of the viable cells. The AM ester groups mask the part of the molecule that chelates calcium. Once inside the cells, the (non-fluorescent) calcein AM is hydrolyzed to (fluorescent) calcein by endogenous esterases. The resulting calcein molecule binds to calcium inside the cell and remains trapped inside the cell. These molecules emit strong green fluorescence when subjected to […] of a particular wavelength (495 nm). Since dead cells lack esterase activity, only living cells are labelled.
This cell viability test is performed in two steps. […]

[1] = [Micafungin] log μM 0 (first line printed 0, r12)
[2] = [Micafungin] log μM 0 (second line printed 0, r14)

Compound: CCCCCOc1ccc(-c2cc(-c3ccc(C(=O)N[C@H]4C[C@@H](O)[C@@H](O)NC(=O)[C@@H]5[C@@H](O)[C@@H](C)CN5C(=O)[C@H]([C@H](O)CC(N)=O)NC(=O)[C@H]([C@H](O)[C@@H](O)c5ccc(O)c(OS(=O)(=O)O)c5)NC(=O)[C@@H]5C[C@@H](O)CN5C(=O)[C@H]([C@@H](C)O)NC4=O)cc3)no2)cc1 [Micafungin, {5-[(1S,2S)-2-[(3S,6S,9S,11R,15S,18S,20R,21R,24S,25S,26S)-3-[(1R)-2-carbamoyl-1-hydroxyethyl]-11,20,21,25-tetrahydroxy-15-[(1R)-1-hydroxyethyl]-26-methyl-2,5,8,14,17,23-hexaoxo-18-[(4-{5-[4-(pentyloxy)phenyl]-1,2-oxazol-3-yl}benzene)amido]-1,4,7,13,16,22-hexaazatricyclo[22.3.0.0]heptacosan-6-yl]-1,2-dihydroxyethyl]-2-hydroxyphenyl}oxidanesulfonic acid] (X1-[Orn(4R-OH,5R-OH)]T[Hyp][hTyr(3S-OH,4S-OH,3'-OSO3H)][Gln(3R-OH)][Pro(3S-OH,4S-Me)]; lactam 1-C)
- Globalfluo assay 1 [1]: 2600496 arbitrary units
- Globalfluo assay 2 [1]: 2592730 arbitrary units
- Globalfluo assay 3 [1]: 2666315 arbitrary units
- Mean globalfluo [1]: 2619847 arbitrary units
- Survival rate (%) [1]: 0%
- Globalfluo assay 1 [2]: 3063920 arbitrary units
- Globalfluo assay 2 [2]: 2647280 arbitrary units
- Globalfluo assay 3 [2]: 2608353 arbitrary units
- Mean globalfluo [2]: 2773184 arbitrary units
- Survival rate (%) [2]: 1%
- Globalfluo assay 1 ([Micafungin] log μM 0.4771213): 2619032 arbitrary units
- Globalfluo assay 2 ([Micafungin] log μM 0.4771213): 2696453 arbitrary units
- Globalfluo assay 3 ([Micafungin] log μM 0.4771213): 2858592 arbitrary units
- Mean globalfluo ([Micafungin] log μM 0.4771213): 2724692 arbitrary units
- Survival rate (%) ([Micafungin] log μM 0.4771213): 1%
- Globalfluo assay 1 ([Micafungin] log μM 0.7781513): 2942319 arbitrary units
- Globalfluo assay 2 ([Micafungin] log μM 0.7781513): 3052699 arbitrary units
- Globalfluo assay 3 ([Micafungin] log μM 0.7781513): 2975927 arbitrary units
- Mean globalfluo ([Micafungin] log μM 0.7781513): 2990315 arbitrary units
- Survival rate (%) ([Micafungin] log μM 0.7781513): 2%
- Globalfluo assay 1 ([Micafungin] log μM 0.90309): 2800146 arbitrary units
- Globalfluo assay 2 ([Micafungin] log μM 0.90309): 3162662 arbitrary units
- Globalfluo assay 3 ([Micafungin] log μM 0.90309): 3203256 arbitrary units
- Mean globalfluo ([Micafungin] log μM 0.90309): 3055355 arbitrary units
- Survival rate (%) ([Micafungin] log μM 0.90309): 3%
- Globalfluo assay 1 ([Micafungin] log μM 1): 3210890 arbitrary units
- Globalfluo assay 2 ([Micafungin] log μM 1): 3369543 arbitrary units
- Globalfluo assay 3 ([Micafungin] log μM 1): 2819931 arbitrary units
- Mean globalfluo ([Micafungin] log μM 1): 3133455 arbitrary units
- Survival rate (%) ([Micafungin] log μM 1): 3%
- Globalfluo assay 1 ([Micafungin] log μM 1.079181): 3383806 arbitrary units
- Globalfluo assay 2 ([Micafungin] log μM 1.079181): 3457745 arbitrary units
- Globalfluo assay 3 ([Micafungin] log μM 1.079181): 3493598 arbitrary units
- Mean globalfluo ([Micafungin] log μM 1.079181): 3445050 arbitrary units
- Survival rate (%) ([Micafungin] log μM 1.079181): 5%
- Globalfluo assay 1 ([Micafungin] log μM 1.176091): 3454603 arbitrary units
- Globalfluo assay 2 ([Micafungin] log μM 1.176091): 3676802 arbitrary units
- Globalfluo assay 3 ([Micafungin] log μM 1.176091): 3618017 arbitrary units
- Mean globalfluo ([Micafungin] log μM 1.176091): 3583141 arbitrary units
- Survival rate (%) ([Micafungin] log μM 1.176091): 6%
- Globalfluo assay 1 ([Micafungin] log μM 1.30103): 3383992 arbitrary units
- Globalfluo assay 2 ([Micafungin] log μM 1.30103): 2974781 arbitrary units
- Globalfluo assay 3 ([Micafungin] log μM 1.30103): 3188414 arbitrary units
- Mean globalfluo ([Micafungin] log μM 1.30103): 3182396 arbitrary units
- Survival rate (%) ([Micafungin] log μM 1.30103): 3%
- Globalfluo assay 1 ([Micafungin] log μM −2): 2651037 arbitrary units
- Globalfluo assay 2 ([Micafungin] log μM −2): 2880244 arbitrary units
- Globalfluo assay 3 ([Micafungin] log μM −2): 2908835 arbitrary units
- Mean globalfluo ([Micafungin] log μM −2): 2813372 arbitrary units
- Survival rate (%) ([Micafungin] log μM −2): 1%
